BindingDB's records for doi:10.1016/0014-2999(88)90492-x (Novo Industri, 1988)
Structures can show the parent of a compound that is named as a salt.

Experiments:
D(1A) dopamine receptor = D(1A) dopamine receptor (Mus musculus, UniProt Q61616)
D(2) dopamine receptor = D(2) dopamine receptor (Mus musculus, UniProt P61168)
D(2) dopamine receptor, sequence (P61168 whole entry): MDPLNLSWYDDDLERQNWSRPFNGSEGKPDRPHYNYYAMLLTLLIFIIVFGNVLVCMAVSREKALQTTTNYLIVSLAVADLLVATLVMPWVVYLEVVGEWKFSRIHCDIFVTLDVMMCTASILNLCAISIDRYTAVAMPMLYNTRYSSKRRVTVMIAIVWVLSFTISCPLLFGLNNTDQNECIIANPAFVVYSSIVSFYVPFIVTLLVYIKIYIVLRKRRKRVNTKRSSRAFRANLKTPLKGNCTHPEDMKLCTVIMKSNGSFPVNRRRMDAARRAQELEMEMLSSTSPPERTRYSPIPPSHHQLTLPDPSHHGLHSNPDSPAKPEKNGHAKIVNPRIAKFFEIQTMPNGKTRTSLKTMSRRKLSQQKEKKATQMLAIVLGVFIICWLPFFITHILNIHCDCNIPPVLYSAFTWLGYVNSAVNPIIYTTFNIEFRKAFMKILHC

D(1A) dopamine receptor, sequence (Q61616 whole entry): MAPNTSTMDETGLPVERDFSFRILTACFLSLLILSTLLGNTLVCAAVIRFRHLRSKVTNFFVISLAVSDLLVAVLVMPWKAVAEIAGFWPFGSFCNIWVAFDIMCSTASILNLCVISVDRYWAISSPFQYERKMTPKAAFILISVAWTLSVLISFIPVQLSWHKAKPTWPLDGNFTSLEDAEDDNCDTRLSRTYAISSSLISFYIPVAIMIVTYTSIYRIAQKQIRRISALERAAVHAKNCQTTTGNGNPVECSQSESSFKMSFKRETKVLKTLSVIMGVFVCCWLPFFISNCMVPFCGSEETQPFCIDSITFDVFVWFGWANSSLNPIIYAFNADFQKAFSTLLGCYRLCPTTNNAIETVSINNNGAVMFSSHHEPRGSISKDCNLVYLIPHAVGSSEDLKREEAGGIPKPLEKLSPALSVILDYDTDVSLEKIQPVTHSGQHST

SMILES | Ki (D(1A) dopamine receptor) [nM] | Ki (D(2) dopamine receptor) [nM]
CCc1c(C)[nH]c2c1C(=O)C(CN1CCOCC1)CC2 (centres undefined) [Moban] | > 10000 | 56
CCN1CCCC1CNC(=O)c1cc(S(N)(=O)=O)ccc1OC (centres undefined) [N-[(1-ethylpyrrolidin-2-yl)methyl]-2-methoxy-5-sulfamoylbenzamide] | – | 70
O=C(O)c1ccccc1C(=O)Nc1cccc2ccccc12 [NPA,(+)] | 480 | 4.1
OCCN1CCN(CCCN2c3ccccc3Sc3ccc(C(F)(F)F)cc32)CC1 [2-[4-[3-[2-(trifluoromethyl)phenothiazin-10-yl]propyl]piperazin-1-yl]ethanol;hydrochloride] | 4.5 | –
CN1CCN(C2=Nc3cc(F)ccc3Cc3ccccc32)CC1 | 85 | 245

The remaining compounds from weak to strong by Ki (D(2) dopamine receptor), led by results:

Ki (D(1A) dopamine receptor) [nM] | Ki (D(2) dopamine receptor) [nM] | SMILES
17 | 27 | CN1CCN(C2=Nc3cc(Cl)ccc3Cc3sccc32)CC1 [CAS_42239-60-1]
16 | 7.6 | CN1CCN(C2=Nc3ccccc3Oc3ccc(Cl)cc32)CC1 [13-chloro-10-(4-methylpiperazin-1-yl)-2-oxa-9-azatricyclo[9.4.0.0^{3,8}]pentadeca-1(11),3,5,7,9,12,14-heptaene]
> 10000 | 4.8 | CCN1CCC[C@H]1CNC(=O)c1c(O)c(Cl)cc(Cl)c1OC [3,5-Dichloro-N-(1-ethyl-pyrrolidin-2-ylmethyl)-2-hydroxy-6-methoxy-benzamide (raclopride)]
